Converted amounts (≈) assume the structure as drawn. Read-outs that look alike come from different tables or passages of the source. Marks after values point to notes of the source that are not given here.
Tests used:
[1] = target: CYP2C9 (Homo sapiens, UniProt P11712); experiment: Cytochrome P450 inhibition assay, CYP2C9; assay type: in vitro ADME
[2] = target: mouse CB2R (Mus musculus, UniProt P47936); experiment: cAMP assay, mouse CB2R (mouse spleen homogenate); assay type: biochemical
Description: The effect of ligands on the forskolin-stimulated accumulation of cAMP was determined using the LANCE ULTRA cAMP kit as per the manufacturer’s instruction (Perkin-Elmer Life Sciences, Boston, MA, USA).
For mouse CB2R cAMP assays, mouse spleen was resuspended in 50 mM of Tris-HCl (pH 7.4), then homogenized with a Potter homogenizer and centrifuged at 1000× g for 10 min. The supernatants were incubated for 30 min with 1-methyl-3-isobutylxanthine (IBMX), then forskolin was added in the presence or absence of ligands. The supernatants were incubated for 30 min in ATP Regeneration Buffer (50 mM HEPES, pH 7.4, 10 mM phosphocreatine, 10 units/mL creatine phosphokinase, 10 μM GTP, 200 μM ATP, 10 mM MgCl2, 250 μM IBMX), and the reaction was stopped by adding lysis buffer. Time-resolved fluorescence was measured with a Victor V Multilabel counter (Perkin-Elmer Life Sciences, Boston, MA, USA).

[3] = target: T1, human CB2R (Homo sapiens, UniProt P34972); conditions: cited from earlier work
T1 construct: bgal (beta-galactosidase fragment of the PathHunter system, named only in the cell line's name); host or cells: CHO-K1 (CHOK1hCB2_bgal)
T1 sequence (P34972 whole entry, the tested form may be a part): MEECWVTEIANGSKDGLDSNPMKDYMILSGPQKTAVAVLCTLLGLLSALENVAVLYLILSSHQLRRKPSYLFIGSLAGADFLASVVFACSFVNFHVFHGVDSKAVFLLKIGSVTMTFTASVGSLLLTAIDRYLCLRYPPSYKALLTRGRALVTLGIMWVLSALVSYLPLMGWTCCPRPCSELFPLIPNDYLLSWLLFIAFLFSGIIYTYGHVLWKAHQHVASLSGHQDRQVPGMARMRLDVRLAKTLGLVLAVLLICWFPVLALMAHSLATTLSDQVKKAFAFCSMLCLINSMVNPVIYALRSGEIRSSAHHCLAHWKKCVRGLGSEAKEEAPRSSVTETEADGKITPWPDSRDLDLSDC

[4] = phosphate buffer pH 6.5; * previously published; cited from earlier work
[5] = target: CYP3A4 (Homo sapiens, UniProt P08684); experiment: Cytochrome P450 inhibition assay, CYP3A4; assay type: in vitro ADME
CYP3A4, sequence (P08684 whole entry): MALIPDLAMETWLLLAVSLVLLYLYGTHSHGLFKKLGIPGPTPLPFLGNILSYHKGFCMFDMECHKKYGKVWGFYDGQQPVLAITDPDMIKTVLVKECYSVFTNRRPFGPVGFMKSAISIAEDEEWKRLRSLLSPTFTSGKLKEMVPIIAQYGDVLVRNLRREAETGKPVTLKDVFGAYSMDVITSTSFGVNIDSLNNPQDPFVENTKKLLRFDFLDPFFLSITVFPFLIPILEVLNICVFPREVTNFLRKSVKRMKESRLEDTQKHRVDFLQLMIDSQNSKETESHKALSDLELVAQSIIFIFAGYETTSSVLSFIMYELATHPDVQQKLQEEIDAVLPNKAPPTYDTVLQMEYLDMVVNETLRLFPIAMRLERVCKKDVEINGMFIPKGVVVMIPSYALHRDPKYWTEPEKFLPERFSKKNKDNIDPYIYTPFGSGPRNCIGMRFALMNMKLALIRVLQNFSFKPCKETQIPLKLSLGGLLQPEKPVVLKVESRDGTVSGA

[6] = Description: The GSH adduct formation test aims for the identification of molecules which bear the risk of forming reactive metabolites that might trigger drug-induced liver injury and drug-induced hypersensitivity reactions in patients. The compounds are incubated with liver microsomes to assess reactive metabolite formation. Glutathione is added as a nucleophile to convert eventually formed reactive species into a stable conjugate that can be analyzed by mass spectrometry. Details on the assay have been reported in Brink et al. (2014). […]
[7] = mouse, * previously published, cited from earlier work; for T1/2 / Tmax: oral, HU308 5 mg/kg, others 3 mg/kg
[8] = Saturation solubility in selected solvents/vehicles; assay type: physicochemical; conditions: for solubility: thermodynamic from solid; for pH of solution in HP-beta-CD 15% / pH of solution in PEG400 30% / pH of solution in Tocrisolve / pH of solution in Mixed Micelles: solubility sample
Description: (§1) Saturation Solubility (= Thermodynamic Solubility)
(§2) Approximately 8.6 mg test compound per milliliter solvent/vehicle was stirred in HPLC vials (9 × 12 × 32 mm, Waters) at 350 rpm for 15 h. Samples of 10 µL each were taken and microscopically examined for presence of solid particles. If the active pharmacological ingredient (API) dissolved completely, more solid API was added, and stirring was continued for another 15 h. Addition of solid material was repeated up to 96 h or until residual solid particles could be detected. Samples of 0.5 mL were then transferred to Eppendorf Ultrafree filter tubes (Filter: PVDF 0.22 µm) and centrifuged at 14,500 rpm for 10 min. The filtrates were diluted in ethanol and analyzed for content by UPLC. The measurements were also conducted in 0.05 M aqueous phosphate buffer, fasted (FaSSIF), and fed (FeSSIF) simulated gastrointestinal fluid. […]

[9] = target: T2, human CB1R (Homo sapiens, UniProt P21554)
T2 construct: host or cells: CHO
T2 sequence (P21554 whole entry): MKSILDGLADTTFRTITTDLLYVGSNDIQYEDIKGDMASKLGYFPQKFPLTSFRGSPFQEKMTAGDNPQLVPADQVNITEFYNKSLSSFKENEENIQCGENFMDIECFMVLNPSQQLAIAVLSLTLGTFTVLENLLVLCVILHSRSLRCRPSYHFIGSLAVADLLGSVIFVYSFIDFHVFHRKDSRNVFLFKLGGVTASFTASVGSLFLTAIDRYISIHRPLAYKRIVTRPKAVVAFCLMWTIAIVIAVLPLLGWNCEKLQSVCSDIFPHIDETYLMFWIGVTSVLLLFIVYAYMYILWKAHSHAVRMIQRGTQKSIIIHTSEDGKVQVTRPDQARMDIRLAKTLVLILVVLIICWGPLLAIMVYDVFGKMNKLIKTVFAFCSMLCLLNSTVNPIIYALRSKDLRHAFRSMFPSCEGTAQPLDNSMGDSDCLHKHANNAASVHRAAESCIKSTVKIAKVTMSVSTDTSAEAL

[10] = human hepatocytes; * previously published; cited from earlier work
[11] = Saturation (thermodynamic) solubility in buffer, FaSSIF, FeSSIF; assay type: physicochemical; conditions: thermodynamic from solid
Description: as §1, §2

[12] = set-up: method as in earlier work; conditions: mouse, i.v., 0.5-1 mg/kg; * previously published; cited from earlier work
[13] = target: T1, human CB2R; conditions: read-out: hCB2R: Ki, cited from earlier work
[14] = test system: mouse P-gp; conditions: cited from earlier work; for P-glycoprotein-Mediated Efflux Extraction Ratio mouse: mouse P-gp, * previously published
[15] = Chemical stability (aqueous stability assay ASTA); assay type: physicochemical; conditions: aqueous buffer, 37 °C
Description: Chemical Stability (= Aqueous Stability Assay ASTA)
ASTA is a fully automated assay to determine the 2 h stability of a molecule in aqueous conditions, over the pH range 1–10. Five different pH values are used and the solutions are heated at 37 °C. A compound is classified unstable if, after 2 h, less than 90% of the initial concentration can be found. Samples are first prepared on incubation plates and shaken initially for 10 min at 37 °C.
Solutions are then transferred to a filter plate (Millipore MSGVN2250, pore size 0.22 µm) and filtrated into V-bottom plates (from ABGene, AB-0800) that are heat-sealed prior to HPLC analysis. The procedure is performed a second time. However, the incubation time at 37 °C for the second plate is increased by 2 h. Samples are taken at time point 0 and 2 h and analyzed by HPLC. […]

[16] = test system: human P-gp; conditions: cited from earlier work; for P-glycoprotein-Mediated Efflux Extraction Ratio human: human P-gp, * previously published
[17] = human and mouse liver microsomes; underlying data previously published; cited from earlier work
[18] = * previously published; cited from earlier work
[19] = underlying data previously published
[20] = aqueous with cosolvent or surfactant or cyclodextrin, in demin. water, n = 1, HU308 crystalline material, read-out: Solubility in HP-beta-CD 15%
[21] = aqueous with cosolvent or surfactant or cyclodextrin, n = 1, RO6871085 as hydrochloride salt, HU308 crystalline material, > = saturation not achieved, read-out: Solubility in Tocrisolve
[22] = oil or lipid, n = 1, RO6871085 as hydrochloride salt, HU308 crystalline material, > = saturation not achieved, read-out: Solubility in MCT (Miglyol 812)
[23] = RO6871085 as hydrochloride salt
[24] = FaSSIF pH 6.5, read-out: Thermodynamic Solubility in FaSSIF (pH 6.5)
[25] = FeSSIF pH 5.5, read-out: Thermodynamic Solubility in FeSSIF (pH 5.5)
[26] = aqueous phosphate buffer pH 6.5, read-out: Thermodynamic Solubility in Aqueous Buffer (pH 6.5)
[27] = pH 1, 2 h, read-out: Chemical Stability in Aqueous Buffer at pH 1 (% remaining after 2 h at 37 °C)
[28] = pH 4, 2 h, read-out: Chemical Stability in Aqueous Buffer at pH 4 (% remaining after 2 h at 37 °C)
[29] = pH 6.5, 2 h, read-out: Chemical Stability in Aqueous Buffer at pH 6.5 (% remaining after 2 h at 37 °C)
[30] = pH 8, 2 h, read-out: Chemical Stability in Aqueous Buffer at pH 8 (% remaining after 2 h at 37 °C)
[31] = pH 10, 2 h, read-out: Chemical Stability in Aqueous Buffer at pH 10 (% remaining after 2 h at 37 °C)
[32] = pH 6, aqueous with cosolvent or surfactant or cyclodextrin, 200 mM glycocholic acid, 200 mM lecithin in water for injection, pH 6, n = 1, RO6871085 as hydrochloride salt, read-out: Solubility in Mixed Micelles
[33] = [3H]-CP55940 displacement; * previously published; read-out: hCB1R: Ki; cited from earlier work

mouse CB2R, sequence (P47936 whole entry): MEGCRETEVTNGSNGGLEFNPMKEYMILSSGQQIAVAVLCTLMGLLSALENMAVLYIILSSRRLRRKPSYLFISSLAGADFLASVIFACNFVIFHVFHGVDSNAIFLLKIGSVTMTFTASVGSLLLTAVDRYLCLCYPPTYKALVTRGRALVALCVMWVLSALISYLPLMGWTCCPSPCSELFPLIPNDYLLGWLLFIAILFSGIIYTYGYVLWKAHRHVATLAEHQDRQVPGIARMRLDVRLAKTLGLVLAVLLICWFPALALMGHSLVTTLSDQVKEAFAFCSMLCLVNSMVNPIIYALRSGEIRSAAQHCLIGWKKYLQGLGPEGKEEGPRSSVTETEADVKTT
CYP2C9, sequence (P11712 whole entry): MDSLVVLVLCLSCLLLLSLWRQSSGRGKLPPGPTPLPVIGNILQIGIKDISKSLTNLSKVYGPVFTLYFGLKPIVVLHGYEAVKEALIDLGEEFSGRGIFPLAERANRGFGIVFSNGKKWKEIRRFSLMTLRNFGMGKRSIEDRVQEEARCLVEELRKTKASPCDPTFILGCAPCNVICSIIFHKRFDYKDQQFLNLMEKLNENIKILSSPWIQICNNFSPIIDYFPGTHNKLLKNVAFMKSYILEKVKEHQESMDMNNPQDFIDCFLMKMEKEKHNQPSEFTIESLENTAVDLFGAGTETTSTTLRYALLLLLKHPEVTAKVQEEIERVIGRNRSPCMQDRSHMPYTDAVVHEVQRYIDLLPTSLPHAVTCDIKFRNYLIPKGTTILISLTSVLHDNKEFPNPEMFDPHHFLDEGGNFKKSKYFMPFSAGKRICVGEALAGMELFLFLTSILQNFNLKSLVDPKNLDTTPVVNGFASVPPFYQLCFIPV

CCCCCCC(C)(C)c1cc(OC)c([C@H]2C=C(CO)[C@H]3C[C@@H]2C3(C)C)c(OC)c1 [HU308, {(1S,4S,5S)-4-[2,6-Dimethoxy-4-(2-methyloctan-2-yl)phenyl]-6,6-dimethylbicyclo[3.1.1]hept-2-en-2-yl}methanol, reference compound]
IC50 [1]: > 50 µM | EC50 [2]: 0.006 µM | mouse CB2R: cAMP efficacy [2]: 99% | hCB2R: beta arrestin efficacy ([3]; * previously published): 107% | functional behaviour in hCB2R β-arrestin assay [3, 19]: full agonist | Kinetic Solubility [4]: < 0.75 µg/mL | IC50 [5]: > 50 µM | GSH Adduct Formation in Human Liver Microsomes [6]: no adduct | T1/2 [7]: 3.3 h | Tmax [7]: 0.5 h | solubility in Tocrisolve 100 [8]: considerably lower | solubility [8, 20]: 20 µg/mL (≈ 48.2 µM) | solubility [8, 21]: 1600 µg/mL | solubility [8, 22]: > 10300 µg/mL | pH of solution in HP-beta-CD 15% [8]: 5.7 | pH of solution in PEG400 30% [8]: 5.1 | pH of solution in Tocrisolve [8, 23]: 6.1 | Ki ([9]; read-out: hCB1R: Ki; [3H]-CP55940 displacement; * previously published; cited from earlier work): 4.6 µM | Hepatocyte Clearance human [10]: 8.3 μL/min/Mio cells | solubility thermodynamic [11, 24]: 52 µg/mL (≈ 125 µM) | solubility thermodynamic [11, 25]: 60 µg/mL (≈ 145 µM) | solubility thermodynamic [11, 26]: < 1 µg/mL

CCCCCCC(C)(C)c1cc(OC)c(C2=C[C@H]3CC[C@]2(CO)C3(C)C)c(OC)c1 [HU910, {(1S,4R)-2-[2,6-dimethoxy-4-(2-methyloctan-2-yl)phenyl]-7,7-dimethylbicyclo[2.2.1]hept-2-en-1-yl}methanol, reference compound]
IC50 ([1]; read-out: IC50 CYP2C9): > 50 µM | mouse CB2R: cAMP efficacy [2]: 99% | EC50 ([2]; read-out: mouse CB2R: cAMP EC50): 0.003 µM | AUCINF D [12]: 6060 ng·kg·h/mL/mg | Clearance (CL) [12]: 2.8 mL/min/kg | T1/2 [12]: 7.4 h | Vss [12]: 0.26 L/kg | functional behaviour in hCB2R β-arrestin assay [3]: full agonist | hCB2R: beta arrestin efficacy [3]: 109, 81 * % | EC50 ([3]; read-out: hCB2R: beta arrestin EC50): 0.109 µM | Ki [13]: 0.043 µM | P-glycoprotein-Mediated Efflux Extraction Ratio mouse [14]: 3.0 | Kinetic Solubility [4]: < 0.5 µg/mL | IC50 ([5]; read-out: IC50 CYP3A4): 37 µM | GSH Adduct Formation in Human Liver Microsomes [6]: no adduct | remaining at 2 h [15, 27]: 94% | remaining at 2 h [15, 28]: 93% | remaining at 2 h [15, 29]: 91% | remaining at 2 h [15, 30]: 94% | remaining at 2 h [15, 31]: 93% | T1/2 [7]: 5.2 h | Tmax [7]: 1 h | solubility in Tocrisolve 100 [8]: good solvent | solubility [8, 20]: 320 µg/mL (≈ 772 µM) | solubility [8, 21]: 19200 µg/mL | time of stirring to full dissolution in Tocrisolve 100 ([8]; data not shown): approximately 72 h | Solubility in PEG400 30% ([8]; in demin. water, n = 1, HU308 crystalline material): < LOD | solubility [8, 22]: > 87800 µg/mL | solubility [8, 32]: 4400 µg/mL | pH of solution in HP-beta-CD 15% [8]: 6.2 | pH of solution in PEG400 30% [8]: 6.0 | pH of solution in Mixed Micelles [8, 23]: 6.2 | pH of solution in Tocrisolve [8, 23]: 6.2 | Ki [9, 33]: 3.73 µM | P-glycoprotein-Mediated Efflux Extraction Ratio human [16]: 2.2 | Hepatocyte Clearance human [10]: 9.2 μL/min/Mio cells | solubility thermodynamic [11, 24]: 59 µg/mL (≈ 142 µM) | solubility thermodynamic [11, 25]: 128 µg/mL (≈ 309 µM) | solubility thermodynamic [11, 26]: < 1 µg/mL

Cc1nc([C@](C)(CC2CC2)NC(=O)c2cc(OCC(F)(F)F)c(C3CC3)cn2)no1 [RO6871085, 5-Cyclopropyl-N-[(2S)-1-cyclopropyl-2-(5-methyl-1,2,4-oxadiazol-3-yl)propan-2-yl]-4-(2,2,2-trifluoroethoxy)pyridine-2-carboxamide]
clearance in human as well as mouse microsomes (class in words) [17]: low to medium clearances | IC50 ([1]; read-out: IC50 CYP2C9): 8 µM | AUCINF D [12]: 1412 ng·kg·h/mL/mg | Clearance (CL) [12]: 11.8 mL/min/kg | T1/2 [12]: 4.15 h | Vss [12]: 4.0 L/kg | LogD (at pH 7.4) [18]: 3.94 | Ki ([13]; [3H]-CP55940 displacement, * previously published): 0.076 µM | P-glycoprotein-Mediated Efflux Extraction Ratio mouse [14]: 1.7 | P-gp substrate, mouse [14, 19]: not a P-gp substrate | IC50 ([5]; read-out: IC50 CYP3A4): 37 µM | GSH Adduct Formation in Human Liver Microsomes [6]: no adduct | remaining at 2 h [15, 27]: 99% | remaining at 2 h [15, 28]: 99% | remaining at 2 h [15, 29]: 97% | remaining at 2 h [15, 30]: 99% | remaining at 2 h [15, 31]: 99% | F ([7]; oral 3 mg/kg): 68% | T1/2 [7]: 8.42 h | Tmax [7]: 0.5 h | solubility in Tocrisolve 100 [8]: good solvent | solubility [8, 21]: > 30000 µg/mL | solubility [8, 22]: 2300 µg/mL | solubility [8, 32]: 200 µg/mL | pH of solution in Mixed Micelles [8, 23]: 6.1 | pH of solution in Tocrisolve [8, 23]: 1.2 | Ki [9, 33]: 3.38 µM | P-glycoprotein-Mediated Efflux Extraction Ratio human [16]: 1.4 | P-gp substrate, human [16, 19]: not a P-gp substrate | Hepatocyte Clearance human [10]: 17 μL/min/Mio cells | solubility thermodynamic [11, 24]: 37 µg/mL (≈ 87.2 µM) | solubility thermodynamic [11, 25]: 56 µg/mL (≈ 132 µM) | solubility thermodynamic [11, 26]: 3 µg/mL (≈ 7.07 µM)

Source: paper PMC6767236, “Selective Cannabinoid 2 Receptor Agonists as Potential Therapeutic Drugs for the Treatment of Endotoxin-Induced Uveitis” (Molecules, 2019)
